Test results as given in patent US9394305B2, “Substituted imidazo[1,2-a]pyridine compounds as tropomyosin receptor kinase a (TrkA) inhibitors” (Dr. Reddy's Laboratories Ltd., priority 2014, dated 2016).
Like-named read-outs stand apart in the source and are kept apart here.

Molecular target: T1, TrkA kinase (Homo sapiens, UniProt P04629)
T1 construct: purchased Upstate, USA
Assay: In vitro TrkA inhibitory activity using TR-FRET assay
Type: biochemical
Settings: 5 ng TrkA, 500 μM ATP, values given as bins
Protocol: Compounds were screened in the TR-FRET assay with TrkA kinase. 5 ng of TrkA [Upstate, USA] kinase was used for assay. The compound was incubated with the kinase for 30 minutes at 20-35° C. After the incubation, substrate mix [40 nM Ultra light poly GT (Perkin Elmer, USA) and 500 μM ATP] was added. The above reaction was stopped by the addition of 40 mM EDTA after 30 minutes. The Eu-labelled antiphospho-tyrosine antibody [Perkin Elmer, USA] was added at 0.5 nM and the fluorescence emission at 615 nm/665 nm [excitation at 340 nm] was measured. The compounds were initially screened at 100 nM, 1 μM and 10 μM concentrations. The potent compounds with >25% inhibition at 1 μM of TrkA were taken for the full dose response studies. The final DMSO concentration in the assay was […]. For IC50 determination, ⅓^rd serial dilution was made from the 20 mM DMSO stock solution. 2 μl of these were transferred to the test wells containing 20 μl reaction mixture [Total reaction volume 22 μl]. The fluorescence was measured in Perkin Elmer Wallac 1420 Multilabel Counter Victor 3. The IC50 was determined by fitting the dose response data to a sigmoidal curve fitting equation using GraphPad Prism software version 5.

[1] = read-out: TrkA inhibition in-vitro IC50
[2] = read-out: TrkA inhibitory activity in-vitro IC50

T1 sequence (P04629 33-796): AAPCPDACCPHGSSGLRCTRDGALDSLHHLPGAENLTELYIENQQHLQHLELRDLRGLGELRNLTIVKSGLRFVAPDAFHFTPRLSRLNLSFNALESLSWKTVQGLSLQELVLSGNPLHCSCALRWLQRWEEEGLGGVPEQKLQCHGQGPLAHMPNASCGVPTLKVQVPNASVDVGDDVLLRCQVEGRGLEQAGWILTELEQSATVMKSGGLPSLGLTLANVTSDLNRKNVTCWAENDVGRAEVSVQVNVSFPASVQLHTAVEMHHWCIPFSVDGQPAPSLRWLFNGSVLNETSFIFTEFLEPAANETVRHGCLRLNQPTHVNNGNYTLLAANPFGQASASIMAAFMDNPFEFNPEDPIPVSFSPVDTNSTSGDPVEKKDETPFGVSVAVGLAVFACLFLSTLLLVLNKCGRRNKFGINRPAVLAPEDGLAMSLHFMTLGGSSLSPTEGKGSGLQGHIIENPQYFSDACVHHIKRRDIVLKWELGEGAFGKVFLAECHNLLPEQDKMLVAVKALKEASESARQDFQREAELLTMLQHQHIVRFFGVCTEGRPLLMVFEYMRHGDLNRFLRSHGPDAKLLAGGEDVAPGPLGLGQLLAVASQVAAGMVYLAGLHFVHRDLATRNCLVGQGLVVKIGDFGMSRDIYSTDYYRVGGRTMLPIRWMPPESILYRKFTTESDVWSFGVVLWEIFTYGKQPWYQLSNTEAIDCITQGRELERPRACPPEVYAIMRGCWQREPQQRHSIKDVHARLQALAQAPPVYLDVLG

IC50 [1] | IC50 [2] | Structure (SMILES)
100 to 500 nM | – | O=C(O)CNC(=O)c1cnc2ccc(N3CCC[C@H]3c3cc(F)ccc3F)cn12 (single isomer, unassigned) [Example 19, 2-(6-(2-(2,5-difluorophenyl)pyrrolidin-1-yl)imidazo[1,2-a]pyridine-3-carboxamido)acetic acid]
≤ 50 nM | – | CN(c1ccccn1)S(=O)(=O)NC(=O)c1cnc2ccc(N3C[C@@H](F)C[C@@H]3c3cc(F)ccc3OC3CCOCC3)cn12 [Example 104, 6-((2R,4S)-4-fluoro-2-(5-fluoro-2-((tetrahydro-2H-pyran-4-yl)oxy)phenyl)pyrrolidin-1-yl)-N—(N-methyl-N-(pyridin-2-yl)sulfamoyl)imidazo[1,2-a]pyridine-3-carboxamide]
100 to 500 nM | – | CC(C)(C)S(=O)(=O)NC(=O)c1cnc2ccc(N3CCC[C@@H]3c3cc(F)ccc3OC3CCOCC3)cn12 [Example 79, (R)—N-(tert-butylsulfonyl)-6-(2-(5-fluoro-2-((tetrahydro-2H-pyran-4-yl)oxy)phenyl)pyrrolidin-1-yl)imidazo[1,2-a]pyridine-3-carboxamide]
100 to 500 nM | – | C[C@@H](CO)NC(=O)c1cnc2ccc(N3CCC[C@@H]3c3cc(F)ccc3F)cn12 [Example 28, 6-((R)-2-(2,5-difluorophenyl)pyrrolidin-1-yl)-N—((S)-1-hydroxypropan-2-yl)imidazo[1,2-a]pyridine-3-carboxamide]
≤ 50 nM | – | CC1(S(=O)(=O)NC(=O)c2cnc3ccc(N4CCCCC4c4cc(F)ccc4F)cn23)CC1 (single isomer, unassigned) [Example 69, 6-(2-(2,5-difluorophenyl)piperidin-1-yl)-N-((1-methylcyclo-propyl)sulfonyl)imidazo[1,2-a]pyridine-3-carboxamide]
50 to 100 nM | – | CCCN(C)S(=O)(=O)NC(=O)c1cnc2ccc(N3CCC[C@@H]3c3cc(F)ccc3OC)cn12 [Example 53]
≤ 50 nM | – | CN(CC(C)(C)F)S(=O)(=O)NC(=O)c1cnc2ccc(N3CCC[C@@H]3c3cc(F)ccc3F)cn12 [Example 42, (R)-6-(2-(2,5-difluorophenyl)pyrrolidin-1-yl)-N-(N-(2-fluoro-2-methylpropyl)-N-methylsulfamoyl)imidazo[1,2-a] pyridine-3-carboxamide]
≤ 50 nM | – | Cc1ccc(N(C)S(=O)(=O)NC(=O)c2cnc3ccc(N4C[C@@H](F)C[C@@H]4c4cc(F)ccc4O[C@@H]4CCOC4)cn23)nn1 [Example 78, 6-((2R,4S)-4-fluoro-2-(5-fluoro-2-(((R)-tetrahydrofuran-3-yl)oxy)phenyl)pyrrolidin-1-yl)-N—(N-methyl-N-(6-methylpyridazin-3-yl)sulfamoyl)imidazo[1,2-a]pyridine-3-carboxamide]
50 to 100 nM | – | CC1(S(=O)(=O)NC(=O)c2cnc3ccc(N4CCC[C@@H]4c4cc(F)ccc4F)cn23)CC1 [Example 32, (R)-6-(2-(2,5-difluorophenyl)pyrrolidin-1-yl)-N-((1-methylcyclopropyl)sulfonyl)imidazo[1,2-a]pyridine-3-carboxamide]
– | 1000 to 10000 nM | O=C(c1cnc2ccc(N3CCCC3c3cc(F)ccc3F)cn12)N1CCOCC1 (centres unmarked) [Example 6, (6-(2-(2,5-difluorophenyl)pyrrolidin-1-yl)imidazo[1,2-a]pyridin-3-yl)(morpholino)methanone]
≤ 50 nM | – | CN(c1nccs1)S(=O)(=O)NC(=O)c1cnc2ccc(N3C[C@@H](F)C[C@@H]3c3cc(F)ccc3OC3CCOCC3)cn12 [Example 100, 6-((2R,4S)-4-fluoro-2-(5-fluoro-2-((tetrahydro-2H-pyran-4-yl)oxy)phenyl)pyrrolidin-1-yl)-N—(N-methyl-N-(thiazol-2-yl)sulfamoyl)imidazo[1,2-a]pyridine-3-carboxamide]
100 to 500 nM | – | O=C(NS(=O)(=O)c1ccc(N2CC[C@H](O)C2)cc1)c1cnc2ccc(N3CCC[C@@H]3c3cc(F)ccc3F)cn12 [Example 36, 6-((R)-2-(2,5-difluorophenyl)pyrrolidin-1-yl)-N-((4-((S)-3-hydroxypyrrolidin-1-yl)phenyl)sulfonyl)imidazo[1,2-a]pyridine-3-carboxamide]
50 to 100 nM | – | O=C(NS(=O)(=O)N(CC1CC1)c1cccnc1)c1cnc2ccc(N3CCC[C@@H]3c3cc(F)ccc3F)cn12 [Example 44, (R)-N-(N-(cyclopropylmethyl)-N-(pyridin-3-yl)sulfamoyl)-6-(2-(2,5-difluorophenyl)pyrrolidin-1-yl)imidazo[1,2-a]pyridine-3-carboxamide]
≤ 50 nM | – | CCN(C)S(=O)(=O)NC(=O)c1cnc2ccc(N3C[C@@H](F)C[C@@H]3c3cc(F)ccc3O[C@@H]3CCOC3)cn12 [Example 60, N-(N-ethyl-N-methylsulfamoyl)-6-((2R,4S)-4-fluoro-2-(5-fluoro-2-(((R)-tetrahydrofuran-3-yl)oxy)phenyl)pyrrolidin-1-yl)imidazo[1,2-a]pyridine-3-carboxamide]
≤ 50 nM | – | CN(c1nncs1)S(=O)(=O)NC(=O)c1cnc2ccc(N3CCC[C@@H]3c3cc(F)ccc3OC3CCOCC3)cn12 [Example 86, (R)-6-(2-(5-fluoro-2-((tetrahydro-2H-pyran-4-yl)oxy)phenyl)pyrrolidin-1-yl)-N—(N-methyl-N-(1,3,4-thiadiazol-2-yl)sulfamoyl)imidazo[1,2-a]pyridine-3-carboxamide]
≤ 50 nM | – | CN(c1nccs1)S(=O)(=O)NC(=O)c1cnc2ccc(N3C[C@@H](F)C[C@@H]3c3cc(F)ccc3O[C@@H]3CCOC3)cn12 [Example 77, 6-((2R,4S)-4-fluoro-2-(5-fluoro-2-(((R)-tetrahydrofuran-3-yl)oxy)phenyl)pyrrolidin-1-yl)-N—(N-methyl-N-(thiazol-2-yl)sulfamoyl)imidazo[1,2-a]pyridine-3-carboxamide]
– | 1000 to 10000 nM | CC1(S(=O)(=O)NC(=O)c2cnc3ccc(N4CCCCC4c4cc(F)cc5c4OCCO5)cn23)CC1 (single isomer, unassigned) [Example 52, 6-(2-(7-fluoro-2,3-dihydrobenzo[b][1,4]dioxin-5-yl)piperidin-1-yl)-N-((1-methylcyclopropyl)sulfonyl)imidazo[1,2-a]pyridine-3-carboxamide]
≤ 50 nM | – | CN(c1ccccn1)S(=O)(=O)NC(=O)c1cnc2ccc(N3CCC[C@@H]3c3cc(F)ccc3F)cn12 [Example 47, (R)-6-(2-(2,5-difluorophenyl)pyrrolidin-1-yl)-N-(N-methyl-N-(pyridin-2-yl)sulfamoyl)imidazo[1,2-a]pyridine-3-carboxamide]
≤ 50 nM | – | COCCN(C)S(=O)(=O)NC(=O)c1cnc2ccc(N3C[C@@H](F)C[C@@H]3c3cc(F)ccc3O[C@@H]3CCOC3)cn12 [Example 76, 6-((2R,4S)-4-fluoro-2-(5-fluoro-2-(((R)-tetrahydrofuran-3-yl)oxy)phenyl)pyrrolidin-1-yl)-N—(N-(2-methoxyethyl)-N-methylsulfamoyl)imidazo[1,2-a]pyridine-3-carboxamide]
≤ 50 nM | – | CN(C1CC1)S(=O)(=O)NC(=O)c1cnc2ccc(N3C[C@@H](F)C[C@@H]3c3cc(F)ccc3OC3CCOCC3)cn12 [Example 108, N—(N-cyclopropyl-N-methylsulfamoyl)-6-((2R,4S)-4-fluoro-2-(5-fluoro-2-((tetrahydro-2H-pyran-4-yl)oxy)phenyl)pyrrolidin-1-yl)imidazo[1,2-a]pyridine-3-carboxamide]
≤ 50 nM | – | O=C(c1cnc2ccc(N3CCCC3c3cc(F)ccc3F)cn12)N1CC[C@H](O)C1 (stereo partly drawn) [Example 3, (6-(2-(2,5-difluorophenyl)pyrrolidin-1-yl)imidazo[1,2-a]pyridin-3-yl)((S)-3-hydroxypyrrolidin-1-yl)methanone]
≤ 50 nM | – | CCN(CC)S(=O)(=O)NC(=O)c1cnc2ccc(N3C[C@@H](F)C[C@@H]3c3cc(F)ccc3O[C@@H]3CCOC3)cn12 [Example 74, N—(N,N-diethylsulfamoyl)-6-((2R,4S)-4-fluoro-2-(5-fluoro-2-(((R)-tetrahydrofuran-3-yl)oxy)phenyl)pyrrolidin-1-yl)imidazo[1,2-a]pyridine-3-carboxamide]
≤ 50 nM | – | O=C(Nc1ccc(F)cc1)c1cnc2ccc(N3CCCC3c3cc(F)ccc3F)cn12 (centres unmarked) [Example 1, 6-(2-(2,5-difluorophenyl)pyrrolidin-1-yl)-N-(4-fluorophenyl)imidazo[1,2-a]pyridine-3-carboxamide]
≤ 50 nM | – | CCN(CCF)S(=O)(=O)NC(=O)c1cnc2ccc(N3C[C@@H](F)C[C@@H]3c3cc(F)ccc3OC3CCOCC3)cn12 [Example 102, N—(N-ethyl-N-(2-fluoroethyl)sulfamoyl)-6-((2R,4S)-4-fluoro-2-(5-fluoro-2-((tetrahydro-2H-pyran-4-yl)oxy)phenyl)pyrrolidin-1-yl)imidazo[1,2-a]pyridine-3-carboxamide]
≤ 50 nM | – | O=C(c1cnc2ccc(N3CCCC3c3cc(F)ccc3F)cn12)N1CC(O)C1 (centres unmarked) [Example 4, (6-(2-(2,5-difluorophenyl)pyrrolidin-1-yl)imidazo[1,2-a]pyridin-3-yl)(3-hydroxyazetidin-1-yl)methanone]
50 to 100 nM | – | CCN(C)S(=O)(=O)NC(=O)c1cnc2ccc(N3CCC[C@@H]3c3cc(F)ccc3OC3CCOCC3)cn12 [Example 80, (R)—N—(N-ethyl-N-methylsulfamoyl)-6-(2-(5-fluoro-2-((tetrahydro-2H-pyran-4-yl)oxy)phenyl)pyrrolidin-1-yl)imidazo[1,2-a]pyridine-3-carboxamide]
